The values below come from patent US11149031B2, “Substituted N-(3-fluoropropyl)-pyrrolidine compounds, processes for their preparation and therapeutic uses thereof” (SANOFI, priority 2016, dated 2021).

pIC50: −log10 of the molar value. Like-named read-outs stand apart in the source and are kept apart here. Where only a bound is given, the exact number is not on record here.

In assay [1] the target is His6-ERα298-554 D538G mutant (ERα ligand-binding domain) (Homo sapiens (Human), UniProt P03372, D538G). The experiment in a line: Test A: biochemical antagonist activity, LanthaScreen TR-FRET ERα coactivator assay, D538G mutant. To be noted: asterisk (*): protocol using 10 nM estradiol; read-out: Antagonism D538G IC50. An outline of the steps: (§1)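 His6-ERα LBD (aa 298–554), 0.5 nM, with Tb-anti-His6 antibody, 250 nM PGC1a peptide and 3 nM (or 10 nM) estradiol in pH 7.4 potassium phosphate/DTT buffer; incubated with compound overnight at room temperature. IC50 from 4-parameter logistic fit of TR-FRET 520:495 nm ratio.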
Background: Time-resolved FRET reads energy transfer from a long-lived donor to a nearby acceptor.

The subject of assay [2] is MCF7 cells expressing mutant estrogen receptor Asp 538 Gly. The experiment in a line: Test B: cell proliferation/viability assay (CellTiter-Glo) on MCF7 Asp 538 Gly mutant. The class given is cell-based. Conditions: MCF7 cells expressing ER Asp 538 Gly mutant, 7 days of compound exposure, read-out: proliferation MCF7 D538G IC50. From the text: (§2) Test B: Cell Proliferation/Viability Assay on MCF7 (Breast Tumor Cells) WT and Mutants Cell Lines
(§3) Test B involves measuring the in vitro proliferation activity of the compounds of the invention by analyzing the viability of the tumor cells.
(§4) The measurements of the viability were made using a breast cancer cell viability assay as described hereunder.
(§5) MCF7 cells expressing (and dependent) on mutants estrogen receptor Tyr 537 Ser or Asp 538 Gly were generated by transfection of MCF7 parental cells (ATCC) with expression vectors coding for different mutants of estrogen receptor Tyr 537 Ser or Asp 538 Gly. The cells were first selected by antibiotic (related to vector expression) and then selected for their growth dependence on estrogen receptor based on their ability to grow in vitro in absence of estradiol (parental cell line die in absence of estradiol).
(§6) MCF7 cells (ATCC) or MCF7 cells expressing (and dependent) on mutants estrogen receptor Tyr 537 Ser or Asp 538 Gly were seeded in 384 wells microplate at concentration of >999 cells/30 μL per well in red phenol free MEM medium containing 5% charcoal dextran striped FBS. The following day, 9 points serial 1:5 dilution of each compound were added to the cells in 20 μL at final concentrations ranging from 3-0.000001 μM. After 7 days of compound exposure, 50 μL of CellTiter-Glo (promega) was added to the cells and relative luminescence arbitrary units (RLUs) were determined in luminescence plate reader (Envision device). CellTiter-Glo was added to 50 μL medium without cells to determine the background signal.
(§7) The percent of viability of each sample was determined as follows: (RLU sample−RLU background/RLU untreated−RLU background)*100=% viability.
A general note: ATP-based viability assays read luminescence as a measure of living cells.

The target of the next assay is ERα in MCF7 cells (Homo sapiens (Human), UniProt P03372). Nature of the assay: Test C: estrogen receptor degradation activity, ERα in cell western assay in MCF7 cells. The class given is cell-based. Conditions: for DC50: 4 hours post compound addition, ERα in cell western, read-out: Degradation IC50; for % Degradation at 3 μM: 4 hours, relative to fulvestrant. An outline of the steps: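 In-cell western, MCF7, 4 h compound exposure, 3–0.000018 μM final, 9 points, 1:5 steps. Formalin/Triton fix, anti-ER rabbit mAb overnight cold, Alexa 488 secondary plus 2 μM Syto-64. Green intensity = ERα, red = DNA; no-primary wells as background.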

For assay [3], the system named is MCF7 cells expressing mutant estrogen receptor Tyr 537 Ser. The experiment in a line: Test B: cell proliferation/viability assay (CellTiter-Glo) on MCF7 Tyr 537 Ser mutant. The class given is cell-based. Conditions: MCF7 cells expressing ER Tyr 537 Ser mutant, 7 days of compound exposure, read-out: proliferation MCF7 Y537S IC50.
Source text: as §2, §3, §4, §5, §6, §7

The target in assay [4] is His6-ERα298-554 Y537S mutant (ERα ligand-binding domain) (Homo sapiens (Human), UniProt P03372, Y537S). The experiment in a line: Test A: biochemical antagonist activity, LanthaScreen TR-FRET ERα coactivator assay, Y537S mutant. Conditions: asterisk (*): protocol using 10 nM estradiol; read-out: Antagonism Y537S IC50. An outline of the steps: as §1
The subject of assay [5] is MCF7 cells (breast tumor cells) WT. The experiment in a line: Test B: cell proliferation/viability assay (CellTiter-Glo) on MCF7 WT. In kind it is cell-based. Conditions: 7 days of compound exposure. The protocol:
as §2, §3
The measurements of the viability were made using a breast cancer cell viability assay as described hereunder. […]
as §6, §7

Assay [6] has as its target His6-ERα298-554 WT (ERα ligand-binding domain) (Homo sapiens (Human), UniProt P03372). The experiment in a line: Test A: biochemical antagonist activity, LanthaScreen TR-FRET ERα coactivator assay, WT. To be noted: asterisk (*): protocol using 10 nM estradiol; read-out: Antagonism WT IC50. An outline of the steps:
as §1

Sequence of ERα in MCF7 cells (P03372 whole entry): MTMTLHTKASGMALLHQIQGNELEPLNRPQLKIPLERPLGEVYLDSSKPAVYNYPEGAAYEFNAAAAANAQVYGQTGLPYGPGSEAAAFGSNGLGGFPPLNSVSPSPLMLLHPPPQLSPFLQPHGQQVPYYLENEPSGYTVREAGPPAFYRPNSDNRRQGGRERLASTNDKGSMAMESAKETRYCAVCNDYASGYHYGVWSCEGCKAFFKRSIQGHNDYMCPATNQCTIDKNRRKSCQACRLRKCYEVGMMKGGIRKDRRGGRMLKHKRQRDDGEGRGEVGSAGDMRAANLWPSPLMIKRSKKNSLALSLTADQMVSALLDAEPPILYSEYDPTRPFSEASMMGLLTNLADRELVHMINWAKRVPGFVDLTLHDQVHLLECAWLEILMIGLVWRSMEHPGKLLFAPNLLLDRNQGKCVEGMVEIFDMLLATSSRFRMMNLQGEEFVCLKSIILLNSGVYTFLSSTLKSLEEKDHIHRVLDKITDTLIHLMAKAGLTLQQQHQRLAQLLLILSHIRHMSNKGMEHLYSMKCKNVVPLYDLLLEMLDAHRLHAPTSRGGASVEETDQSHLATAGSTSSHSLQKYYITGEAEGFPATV
Sequence of His6-ERα298-554 Y537S mutant (ERα ligand-binding domain) (P03372 298-554 Y537S): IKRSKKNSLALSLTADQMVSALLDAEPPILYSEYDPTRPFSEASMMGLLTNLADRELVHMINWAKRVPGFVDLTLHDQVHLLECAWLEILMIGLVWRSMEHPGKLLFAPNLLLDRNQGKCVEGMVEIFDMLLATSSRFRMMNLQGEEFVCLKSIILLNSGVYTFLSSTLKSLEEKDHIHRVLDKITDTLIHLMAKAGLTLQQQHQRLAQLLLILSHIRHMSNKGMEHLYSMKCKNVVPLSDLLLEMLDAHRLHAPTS
Sequence of His6-ERα298-554 WT (ERα ligand-binding domain) (P03372 298-554): as the sequence (P03372 298-554 Y537S) above, with S240Y counted along it
Sequence of His6-ERα298-554 D538G mutant (ERα ligand-binding domain) (P03372 298-554 D538G): as the sequence (P03372 298-554 Y537S) above, with S240Y, D241G counted along it

Consider `[O-][S+]1CCC(c2ccc(OC(F)(F)F)cc2)=C(c2ccc(O[C@H]3CCN(CCCF)C3)cc2)c2ccc(O)cc21` (stereo partly drawn) [Example 225, 5-[4-[(3S)-1-(3-fluoropropyl)pyrrolidin-3-yl]oxyphenyl]-1-oxo-4-[4-(trifluoromethoxy)phenyl]-2,3-dihydro-benzothiepin-8-ol], for which the pIC50 in assay [1] is under 5.40; in assay [2] (Homo sapiens, MCF7, 168 h) it was 7.44; in assay [3] (Homo sapiens, MCF7, 168 h) it was 6.60; in assay [4] it was under 5.40; in assay [5] (Homo sapiens, MCF7, 168 h) it was 7.74; in assay [6] it was 6.12. The DC50 at ERα in MCF7 cells came to 6 nM. Also, the “% Degradation at 3 μM” value at ERα in MCF7 cells amounted to 82%.

As to `Cc1ccc(C2=C(c3cnc(O[C@H]4CCN(CCCF)C4)nc3)c3ccc(O)cc3CCC2)c(F)c1` [Example 244, 6-(2-fluoro-4-methyl-phenyl)-5-[2-[(3S)-1-(3-fluoropropyl)pyrrolidin-3-yl]oxypyrimidin-5-yl]-8,9-dihydro-7H-benzo[7]annulen-2-ol], the pIC50 in assay [1] is 7.17; in assay [2] (Homo sapiens, MCF7, 168 h), 8.70; in assay [3] (Homo sapiens, MCF7, 168 h), 8.22; in assay [4] it was 7.47; in assay [5] (Homo sapiens, MCF7, 168 h) it was 9.05; in assay [6], 8.52. In addition, on ERα in MCF7 cells, the DC50 amounted to 0.4 nM. Further, the “% Degradation at 3 μM” value on ERα in MCF7 cells was determined as 92%.

Turning to `CC1Cc2c([nH]c3ccccc23)C(c2c(F)cc(O[C@H]3CCN(CCCF)C3)cc2F)N1CC(C)(C)F` (single isomer, unassigned) [Example 257], the pIC50 in assay [1] was under 5.40; in assay [2], 7.07; in assay [3], 6.57; in assay [4], under 5.40; in assay [5] it was 7.74; in assay [6], 5.48. Also, the DC50 at ERα in MCF7 cells turned out to be 37 nM. In addition, the “% Degradation at 3 μM” value at ERα in MCF7 cells turned out to be 87%.

As to `COc1ccc(C2=C(c3ccc(O[C@H]4CCN(CCCF)C4)cc3)c3ccc(O)cc3OCC2)c(Cl)c1` [Example 154, 4-(2-chloro-4-methoxy-phenyl)-5-[4-[(3S)-1-(3-fluoropropyl)pyrrolidin-3-yl]oxyphenyl]-2,3-dihydro-1-benzoxepin-8-ol], the pIC50 was 7.11 in assay [1]; 9.22 in assay [2] (Homo sapiens, MCF7, 168 h); 8.40 in assay [3] (Homo sapiens, MCF7, 168 h); 7.29 in assay [4]; 9.70 in assay [5] (Homo sapiens, MCF7, 168 h); 8.30 in assay [6]. In addition, the DC50 on ERα in MCF7 cells is 0.2 nM. Besides, the “% Degradation at 3 μM” value on ERα in MCF7 cells is on record as 92%.

With `Oc1ccc2c(c1)C(c1ccc(O[C@H]3CCN(CCCF)C3)cc1)=C(c1ccc(SC(F)(F)F)cc1)CC2` [Example 9, 8-[4-[(3S)-1-(3-fluoropropyl)pyrrolidin-3-yl]oxyphenyl]-7-[4-(trifluoromethylsulfanyl)phenyl]-5,6-dihydronaphthalen-2-ol], the pIC50 is under 5.40 in assay [1]; 7.33 in assay [2] (Homo sapiens, MCF7, 168 h); under 6.00 in assay [3] (Homo sapiens, MCF7, 168 h); under 5.40 in assay [4]; 7.36 in assay [5] (Homo sapiens, MCF7, 168 h); 5.64 in assay [6]. In addition, the DC50 on ERα in MCF7 cells is 28 nM. In addition, on ERα in MCF7 cells, the “% Degradation at 3 μM” value stood at 79%.

Consider `Nc1ccc(C2=C(c3ccc(O[C@H]4CCN(CCCF)C4)cc3)c3ccc(O)cc3SCC2)c(F)n1` [Example 223, 4-(6-amino-2-fluoro-3-pyridyl)-5-[4-[(3S)-1-(3-fluoropropyl)pyrrolidin-3-yl]oxyphenyl]-2,3-dihydro-1-benzothiepin-8-ol], for which the pIC50 in assay [1] is 7.38; in assay [2] (Homo sapiens, MCF7, 168 h), 9.70; in assay [3] (Homo sapiens, MCF7, 168 h), 10.00; in assay [4], 7.62; in assay [5] (Homo sapiens, MCF7, 168 h), 9.00; in assay [6], 8.70. Moreover, on ERα in MCF7 cells, the DC50 worked out at 0.2 nM. Also, the “% Degradation at 3 μM” value at ERα in MCF7 cells came to 85%.
